According to patent US5087417A, “Control of senescence in fruits, vegetables and flowers” (University of Waterloo, priority 1986, dated 1992):

Experiments:
[1] = system: Microsomes from senescing carnation flowers; assay: Inhibition of ethylene formation in vitro in carnation microsomes; assay type: biochemical
Method: This Example illustrates the inhibition of ethylene formation in vitro by the glucose ester of ferulic acid.
Microsomes from senescing carnation flowers were treated with varying quantities of the glucose ester of ferulic acid, isolated as described in Example 1, and the production of ethylene was determined as a percentage of the control production of ethylene in the absence of added ferulic acid ester

[2] = system: petals of carnation flowers; assay: In vivo prevention of ethylene formation in carnation petals after incubation with ACC; settings: 1 mM taken up transpirationally
Method: This Example illustrates the use of the glucose ester of ferulic acid for in vivo prevention of ethylene formation in carnations.
The glucose ester of ferulic acid (1 mM), isolated as described in Example 1, was taken up transpirationally into petals of carnation flowers. Ethylene production was determined as a percentage of the ethylene produced by untreated control petals at various times after incubation with ACC.

lipoxygenase (LOX) [3] = assay: Lipoxygenase activity, carnation microsomal membranes; assay type: biochemical
Excerpt: (§1) This Example illustrates the inhibition of lipoxygenase (LOX) activity by the glucose ester of ferulic acid.

lipoxygenase (LOX) [4] = assay: Lipoxygenase activity, bean cotyledon membrane and cytosol; assay type: biochemical
Excerpt: as §1

[5] = Radical scavenging in a chemical system; settings: tests with a chemical system

inhibition of lipoxygenase activity derived from carnation (in words) (lipoxygenase (LOX) [3]; 40 μM solution): almost complete inhibition | Lipoxygenase activity (% of control) (lipoxygenase (LOX) [3]; 100 μg membrane protein from Stage IV carnation, 40 μM): 1.8 % of control | effect against LOX from other plant systems including bean cotyledons (in words) (lipoxygenase (LOX) [4]): effective | Lipoxygenase activity (% of control) (lipoxygenase (LOX) [4]; 10 μg cytosol protein of 9 d bean cotyledon, 50 μM): 48.4 % of control | Lipoxygenase activity (% of control) (lipoxygenase (LOX) [4]; 10 μg cytosol protein of 9 d bean cotyledon, 100 μM): 35.9 % of control | Lipoxygenase activity (% of control) (lipoxygenase (LOX) [4]; 60 μg membrane protein of 9 d bean cotyledon, 50 μM): 46.3 % of control | Lipoxygenase activity (% of control) (lipoxygenase (LOX) [4]; 60 μg membrane protein of 9 d bean cotyledon, 100 μM): 37.8 % of control | effect on enzyme activity in membrane and cytosol preparations (in words) (lipoxygenase (LOX) [4]; 100 μm concentrations, all experiments): caused an inhibition of enzyme activity
SMILES: COc1cc(/C=C/C(=O)O[C@@H]2O[C@H](CO)[C@@H](O)[C@H](O)[C@H]2O)ccc1O [glucose ester of ferulic acid]
Ethylene Production ([1]; Control + 10 μM of Additive): 0.518 ± 0.019 n1.100 μg^-1 protein h^-1 | Ethylene Production % Control ([1]; Control + 10 μM of Additive): 53.9% | Ethylene Production ([1]; Control + 50 μM of Additive): 0.014 ± 0.005 n1.100 μg^-1 protein h^-1 | Ethylene Production % Control ([1]; Control + 50 μM of Additive): 2.0% | Ethylene Production ([1]; Control + 100 μM of Additive): 0 n1.100 μg^-1 protein h^-1 | Ethylene Production % Control ([1]; Control + 100 μM of Additive): 0% | ethylene formation (in words) ([1]; concentration of 100 μM): zero | % Inhibition of ethylene production ([2]; 12 hrs after treatment): 100% | % Inhibition of ethylene production ([2]; 16 hrs after treatment): 97.3% | % Inhibition of ethylene production ([2]; 21 hrs after treatment): 90.4% | % Inhibition of ethylene production ([2]; 26 hrs after treatment): 81.7% | radical scavenger activity (in words) [5]: shown promise as a full radial scavenger
